Data as given in publication PMC10541198, “Specific quinone reductase 2 inhibitors reduce metabolic burden and reverse Alzheimer’s disease phenotype in mice” (The Journal of Clinical Investigation, 2023).

What was measured:
QR2 = target: T1, QR2 (Homo sapiens, UniProt P16083); experiment: QR2 activity assay, BNAH fluorescence (standard/primary); type: biochemical; details: Figure 2D; readout not stated
T1 construct: purchased Sigma-Aldrich
T1 sequence (P16083 1-231): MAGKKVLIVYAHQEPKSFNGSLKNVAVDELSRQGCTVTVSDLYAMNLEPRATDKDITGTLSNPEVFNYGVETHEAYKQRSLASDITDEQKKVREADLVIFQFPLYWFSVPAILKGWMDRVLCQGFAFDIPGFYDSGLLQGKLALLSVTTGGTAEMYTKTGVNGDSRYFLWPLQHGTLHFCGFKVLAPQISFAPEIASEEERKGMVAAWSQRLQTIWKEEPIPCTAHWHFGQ
Text: (§1) A drug discovery campaign strategy was initiated to screen compounds for QR2-specific, cell-free inhibition and in vitro activity, followed by SAR optimization (Figure 2A) to achieve highly specific and potent QR2 inhibitor synthesis. In order to establish a varied and chemically amenable starting point, we developed a high-throughput QR2 assay (Supplemental Methods) that we screened against a library with approximately 200,000 compounds. […] Compounds that replicated the initial hit result were then assayed similarly against QR1 to evaluate compound specificity (Figure 2B). From the HTS, a chemically tractable and attractive series of compounds containing a sulfone flanked by an amine and a heterocycle were identified and selected for SAR development (Figure 2C, Supplemental Methods, Supplemental Table 1, and Supplemental Table 2). […]
High Throughput Screen (H TS)
The enzymatic activity of QR 2 (10 nM) was measur ed using menadione (both Sigm a -Aldrich) as subst r at e and dihydro- benzylnicotinamide (BNAH; Tocris) as co-substrate(62). The reaction was performed in 50 mM Tri s HCl, 150 mM NaCl 0.01%Tween- 20 pH=8.5 (Sigma-Aldrich) at r oom tem per atur e. Briefl y, 3 µL of menadione alone (200 µM) or a mixture of menadione and QR2 (200 µM of […]
(§2) menadione and 10 nM of QR2) were dispensed in 1536-well black Nunc plates (Thermo-Fisher) using aMultidrop™ Combi Reagent Dispenser (Thermo-Fisher) and pre-incubated with compounds for 10min. BNAH (200µM) was t hen added (3 µL) to the reaction using a BioNex Solutions BNX1536plate washer and the plates were incubated for another 10 min. Fluorescence intensity was followed in a PHERAstar FS multi-mode plate reader (BMG Labtech) us i ng an optic module with excitation at 360 nm and emission at 470 nm. The initial HTS includedapproximately 200,000 compounds at a single concentrationof 5 µM. The chemical libraries used were Selleck Chemicals Bioactives, the Drug-like set from Enamine, HitFinder collection from Maybridge, Spectrum Collection from Microsource, Lopa c from Sigma -Aldrich and the diversity set s from Chem Div and Che m Br idge .
Initial ‘‘hit’’ compounds were defined as causing >30% reduction of enzyme activity. Compounds suspected to be fluorescent were re -assayed in an absorbance assay at 350 nm using the same reaction but in a higher volume (100 µL), in a transparent plate (Greiner Bio- One). ‘‘Hit’’ compounds resulting from both the fluorescence and absorbance assay wer e t ested in a concentration- response, and IC50 values were de t er mi ne d. In parallel, the same concentration response methodologywas appliedin a selectivity assay where QR2 enzymewas replaced byQR1 […]
Chromatography System, with UV/Vis detector 2489, using XBridge® Prep C18 10 μm 10x250 mm […]
was monitored by Wat er s UPLC-MS system: Acquity UPLC® H class with PDA detector, and using […]

[1] = Solubility in water / saline; type: physicochemical
QR1 = target: T2, QR1 (Homo sapiens, UniProt P15559); experiment: QR1 selectivity assay, fluorescence; type: biochemical; details: Figure 2D; readout not stated
T2 construct: purchased Sigma-Aldrich
T2 sequence (P15559 whole entry): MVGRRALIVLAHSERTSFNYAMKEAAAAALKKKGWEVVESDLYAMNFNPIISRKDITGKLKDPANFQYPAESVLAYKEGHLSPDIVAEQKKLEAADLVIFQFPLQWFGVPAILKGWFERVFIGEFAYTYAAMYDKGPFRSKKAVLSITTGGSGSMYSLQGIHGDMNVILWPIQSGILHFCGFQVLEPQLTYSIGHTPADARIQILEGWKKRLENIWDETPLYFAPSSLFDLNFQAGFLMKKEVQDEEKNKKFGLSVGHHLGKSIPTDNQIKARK
Text: as §1, §2
Initial ‘‘hit’’ compounds were defined as causing >30% reduction of enzyme activity. Compounds suspected to be fluorescent were re -assayed in an absorbance assay at 350 nm using the same reaction but in a higher volume (100 µL), in a transparent plate (Greiner Bio- One). ‘‘Hit’’ compounds resulting from both the fluorescence and absorbance assay wer e t ested in a concentration- response, and IC50 values were de t er mi ne d. In parallel, the same

| IC50 (QR2) | solubility in water [1] | IC50 (QR1) | Structure (SMILES) |
| --- | --- | --- | --- |
| 7.39 µM | – | – | Cc1nc(-c2ccc(C)c(S(=O)(=O)N3CCC(C)CC3)c2)cs1 [YB-104] |
| 0.21 µM | water soluble | – | Cc1ccc(-c2cn3cccc(C)c3n2)cc1S(=O)(=O)N1CCN(C)CC1 [YB-540] |
| 5.71 µM | – | > 9.99 µM | Cc1ccc(-c2nnc(-c3ccccc3)o2)cc1S(=O)(=O)N1CCN(C(=O)c2ccco2)CC1 [YB-789] |
| 0.008 µM | – | 3.33 µM | Cc1ccc(-c2cn3cccc(C)c3n2)cc1S(=O)(=O)N1CCN(C(=O)c2ccco2)CC1 [YB-792] |
| 6.92 µM | – | > 9.99 µM | Cc1ccn2cc(-c3ccc(C)c(S(=O)(=O)NCc4cccnc4)c3)nc2c1 [YB-812] |
| > 9.99 µM | – | > 9.99 µM | Cc1ccn2cc(-c3ccc(C)c(S(=O)(=O)Nc4ccc(Cl)cc4)c3)nc2c1 [YB-816] |
| > 9.99 µM | – | > 9.99 µM | Cc1ccc(-c2nnc(-c3ccccc3)o2)cc1S(=O)(=O)NCCCN1CCCC1=O [YB-818] |
